Assay results reported in patent US20080305092A1, “Methods of treating autoimmune disease via CTLA-4IG” (THE REGENTS OF THE UNIVERSITY OF MICHIGAN, priority 1993, published 2008).

Test system: Jurkat line JHMI-2.2
Experiment: Cell death of Jurkat cells, visual grading and trypan blue
Type: cell-based, human
Settings: scored after 1 to 3 days; 9.3 mAb 10 μg/ml, carbacol 30 μM
Protocol: A series of experiments were done to test whether anti-CD28 mAb might prevent cell death in mature T cells. Jurkat leukemia cells are commonly used as an example of mature T cells that mimic physiologic effects found in peripheral blood T cells. […] The Jurkat line JHMI-2.2 was obtained from A. Weiss (UCSF); the muscarinic M1 receptor subtype has been transfected and is stably expressed in these cells. JHMI-2.2 cells, 0.3×10^6/well, were added to culture wells in complete medium, or to wells that contained plastic-adsorbed anti-CD3 mAb G19-4, in the presence or absence of 9.3 mAb 10 μg/ml, or 9.3 mAb alone. Cell death was scored after 1 to 3 days of culture and graded as 0 (none), 1+(20 to 70% of cells dead), and 2+(70 to 100% of cells dead), and was determined by visual inspection of the wells, and confirmed by trypan blue permeability.

C[N+](C)(C)CCOC(N)=O [Carbacol, carbacol]
CELL DEATH (GRADE 0-2): 1+ (1+(20 to 70% of cells dead))
